# Reference: ChEMBL document CHEMBL1201862, “PubChem BioAssay data set” (2004)
#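 96-well plates; 48 h exposure; 5 concentrations. Endpoints by linear interpolation between flanking doses. Not reached: highest tested concentration assigned. GI50 marks 50% less growth.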 Calls of active or inactive are those of the source. Rule as the data show it: active = GI50 up to about 1.1 µM and inactive = higher.
# Columns and labels:
# Test in all cases: NCI-60 cell line screen, 48 h
# [1] = system: IGROV-1
# [2] = system: HOP-62
# [3] = system: RXF 393
# [4] = system: MCF7
# [5] = system: SK-MEL-5
# [6] = system: Hs-578T
# [7] = system: SR
# [8] = system: MDA-N
# [9] = system: OVCAR-8
# [10] = system: T47D
# [11] = system: NCI-H23
# [12] = system: NCI-H226
# [13] = system: OVCAR-4
# [14] = system: M14
# [15] = system: SN12C
# [16] = system: SNB-75
# [17] = system: EKVX
# [18] = system: COLO 205
# [19] = system: RPMI-8226
# [20] = system: MOLT-4
SMILES,GI50 [1],GI50 [2],GI50 [3],GI50 [4],GI50 [5],GI50 [6],GI50 [7],GI50 [8],GI50 [9],GI50 [10],GI50 [11],GI50 [12],GI50 [13],GI50 [14],GI50 [15],GI50 [16],GI50 [17],GI50 [18],GI50 [19],GI50 [20]
O=S(=O)(c1cnccc1N1CCN(CCO)CC1)N1CCCC1,> 100 µM (inactive),> 100 µM (inactive),> 100 µM (inactive),> 100 µM (inactive),> 100 µM (inactive),> 100 µM (inactive),> 100 µM (inactive),> 100 µM (inactive),> 100 µM (inactive),> 100 µM (inactive),> 100 µM (inactive),> 100 µM (inactive),> 100 µM (inactive),> 100 µM (inactive),> 100 µM (inactive),> 100 µM (inactive),> 100 µM (inactive),> 100 µM (inactive),> 100 µM (inactive),–
O=C1C(CN2CCCC2)CCCC1CN1CCCC1 (stereo not given),17.1 µM (inactive),> 49.8 µM (inactive),2.69 µM (inactive),0.658 µM (active),16.6 µM (inactive),28 µM (inactive),3.04 µM (inactive),7.59 µM (inactive),4.37 µM (inactive),2.56 µM (inactive),1.95 µM (inactive),22.1 µM (inactive),5.75 µM (inactive),1.74 µM (inactive),17.1 µM (inactive),19.7 µM (inactive),3.52 µM (inactive),1.53 µM (inactive),0.9 µM (active),0.258 µM (active)
COc1ccc(/C=C/C(=O)c2cccc(C(=O)/C=C/c3ccc(OC)c(OC)c3)n2)cc1OC,25.9 µM (inactive),> 89.7 µM (inactive),40.4 µM (inactive),3.64 µM (inactive),98.4 µM (inactive),> 48.2 µM (inactive),2.91 µM (inactive),15.7 µM (inactive),3.27 µM (inactive),> 49.3 µM (inactive),29.2 µM (inactive),> 100 µM (inactive),> 100 µM (inactive),32.7 µM (inactive),15.5 µM (inactive),> 100 µM (inactive),> 95.9 µM (inactive),> 68.2 µM (inactive),3.23 µM (inactive),2.82 µM (inactive)
O=C1c2cccnc2C(=O)c2c1nc1ccccc1c2-c1cncc(-c2c3c(nc4ccccc24)C(=O)c2cccnc2C3=O)c1,< 0.0144 µM (active),0.281 µM (active),0.316 µM (active),0.157 µM (active),0.0568 µM (active),0.39 µM (active),< 0.01 µM (active),0.399 µM (active),0.0634 µM (active),0.439 µM (active),0.343 µM (active),0.163 µM (active),0.236 µM (active),0.115 µM (active),0.126 µM (active),0.398 µM (active),0.264 µM (active),0.525 µM (active),0.141 µM (active),0.117 µM (active)
C/C=C\C1OC1(C)c1cc(=O)c2c(C)cc3c(c2o1)C(=O)c1c(O)c(C2CC(C)(N(C)C)C(OC(C)=O)C(C)O2)cc(C2CC(N(C)C)C(O)C(C)O2)c1C3=O (stereo not given),0.00569 µM (active),< 0.00375 µM (active),< 0.00375 µM (active),< 0.00375 µM (active),0.00414 µM (active),0.00766 µM (active),< 0.00375 µM (active),0.0043 µM (active),< 0.00375 µM (active),0.00386 µM (active),< 0.00375 µM (active),0.00461 µM (active),0.00461 µM (active),< 0.00375 µM (active),< 0.00375 µM (active),< 0.00375 µM (active),0.00836 µM (active),< 0.00375 µM (active),< 0.00375 µM (active),< 0.00375 µM (active)
Cn1c(=O)c2c(-c3ccccc3)onc2n(C)c1=O,20.3 µM (inactive),17.1 µM (inactive),21.3 µM (inactive),12.9 µM (inactive),30.7 µM (inactive),24.5 µM (inactive),36.6 µM (inactive),50.2 µM (inactive),24 µM (inactive),23.8 µM (inactive),14 µM (inactive),> 100 µM (inactive),43.2 µM (inactive),16.9 µM (inactive),30.4 µM (inactive),24.6 µM (inactive),38.4 µM (inactive),43.2 µM (inactive),15 µM (inactive),26.8 µM (inactive)
COC(=O)c1ccccc1/C=C1\Cc2ccc3ccccc3c2C1C (stereo not given),> 100 µM (inactive),–,39.2 µM (inactive),50.4 µM (inactive),20.9 µM (inactive),34.6 µM (inactive),32.7 µM (inactive),43.6 µM (inactive),> 100 µM (inactive),17.4 µM (inactive),–,> 100 µM (inactive),45.6 µM (inactive),37.4 µM (inactive),98.9 µM (inactive),72.4 µM (inactive),37.7 µM (inactive),60.1 µM (inactive),37 µM (inactive),27.2 µM (inactive)
COc1ccc(Cn2nc(OCc3ccccc3)c3cc([N+](=O)[O-])ccc32)cc1,> 100 µM (inactive),> 100 µM (inactive),> 100 µM (inactive),> 100 µM (inactive),> 100 µM (inactive),> 100 µM (inactive),> 100 µM (inactive),> 100 µM (inactive),> 100 µM (inactive),> 100 µM (inactive),> 100 µM (inactive),> 100 µM (inactive),–,> 100 µM (inactive),> 100 µM (inactive),> 100 µM (inactive),–,–,> 100 µM (inactive),> 100 µM (inactive)
CC(CO)(CO)/N=C/c1cc(I)cc(I)c1O,9.4 µM (inactive),11.2 µM (inactive),10.9 µM (inactive),19.5 µM (inactive),13.8 µM (inactive),23.6 µM (inactive),8.53 µM (inactive),19.7 µM (inactive),15.5 µM (inactive),23.1 µM (inactive),21.8 µM (inactive),16.4 µM (inactive),8.65 µM (inactive),14.1 µM (inactive),13.3 µM (inactive),12.9 µM (inactive),19.5 µM (inactive),17.8 µM (inactive),21.3 µM (inactive),11.5 µM (inactive)
COC(=O)c1c(C)cccc1/C=C1\Cc2cc(C)cc(C)c2C1=O,65.8 µM (inactive),12 µM (inactive),20.7 µM (inactive),25.8 µM (inactive),32.3 µM (inactive),18.1 µM (inactive),> 100 µM (inactive),> 100 µM (inactive),63.8 µM (inactive),31.7 µM (inactive),51.1 µM (inactive),56.5 µM (inactive),9.75 µM (inactive),55 µM (inactive),> 100 µM (inactive),12.9 µM (inactive),37.6 µM (inactive),–,> 100 µM (inactive),> 100 µM (inactive)
CCc1cccc(C(C)C)c1NC(=O)C(=O)Nn1c(S)nc2ccccc2c1=O,59.4 µM (inactive),> 100 µM (inactive),> 100 µM (inactive),> 100 µM (inactive),> 100 µM (inactive),> 100 µM (inactive),77.3 µM (inactive),> 100 µM (inactive),> 100 µM (inactive),> 100 µM (inactive),> 100 µM (inactive),> 100 µM (inactive),> 100 µM (inactive),> 100 µM (inactive),> 100 µM (inactive),> 100 µM (inactive),37.8 µM (inactive),–,> 100 µM (inactive),> 100 µM (inactive)
O=C1N[C@@H](c2c[nH]c3cc(Br)ccc23)C(=O)N[C@H]1c1c[nH]c2cc(Br)ccc12,> 100 µM (inactive),> 100 µM (inactive),> 100 µM (inactive),> 100 µM (inactive),> 100 µM (inactive),> 100 µM (inactive),> 100 µM (inactive),> 100 µM (inactive),29.9 µM (inactive),> 100 µM (inactive),> 100 µM (inactive),> 100 µM (inactive),> 100 µM (inactive),> 100 µM (inactive),> 100 µM (inactive),9.4 µM (inactive),> 100 µM (inactive),> 100 µM (inactive),> 100 µM (inactive),–
Brc1ccc(C2C3CSc4ccccc4C3=NN2c2ccccc2)cc1 (stereo not given),74.8 µM (inactive),> 100 µM (inactive),> 100 µM (inactive),14.5 µM (inactive),31.8 µM (inactive),> 100 µM (inactive),44.2 µM (inactive),> 100 µM (inactive),62.1 µM (inactive),14.3 µM (inactive),> 100 µM (inactive),> 100 µM (inactive),7.62 µM (inactive),> 100 µM (inactive),> 100 µM (inactive),69 µM (inactive),–,97.1 µM (inactive),27.3 µM (inactive),43 µM (inactive)
O=C(/C=C/c1cccc2ccccc12)c1ccccc1,7.45 µM (inactive),19.8 µM (inactive),10.9 µM (inactive),1.29 µM (inactive),12.5 µM (inactive),26.3 µM (inactive),2.9 µM (inactive),5.71 µM (inactive),8.45 µM (inactive),11.7 µM (inactive),13.7 µM (inactive),12.7 µM (inactive),12.9 µM (inactive),14.6 µM (inactive),7.89 µM (inactive),15.9 µM (inactive),13.4 µM (inactive),20.7 µM (inactive),2.31 µM (inactive),3.94 µM (inactive)
